Patent publication US20140228427A1, “PHARMACEUTICAL COMPOSITION CONTAINING WOGONIN AS AN ACTIVE INGREDIENT FOR PREVENTING OR TREATING ASTHMA” (KOREA RESEARCH INSTITUTE OF BIOSCIENCE AND BIOTECHNOLOGY, priority 2011, published 2014)

Columns and labels:
[1] = system: airway hypersensitivity in ovalbumin-sensitized Balb/c mice; test: Measurement of airway hypersensitivity (Penh, methacholine inhalation, one chamber plethysmography); type: in vivo; details: methacholine 12.5 mg/ml; OVA group 2.2917 ± 0.3070; mean±S.E.
[2] = Body weight of ovalbumin-induced asthma mice; type: in vivo, Balb/c mice; details: OVA asthma induced mice; Wogonin 30 mg/kg PO, dexamethasone 3 mg/kg PO, montelukast 30 mg/kg PO; asthma induced group 19.72±0.53, normal control 21.60±0.25
Experimental: (§1) To investigate the effect of the Wogonin of the present invention on asthma, 6-week old female Balb/c mice in the weight of about 20 g were used as test animals. After spending one week for adaptation, basic physical examination was performed to select normal ones.
(§2) The test animal was sensitized with 200 μl of phosphate buffer (pH 7.4) containing 2 mg of aluminum hydroxide (A8222, Sigma, St. Louis, Mo.) and 20 μg of ovalbumin (A5503, Sigma, St. Louis, Mo.) by intraperitoneal injection at 2 weeks interval. 1% ovalbumin was inhaled in the mouse for 30 minutes by using an ultrasonic nebulizer from the 28th day to the 30th day after the first intraperitoneal injection of ovalbumin (OVA).
(§3) 24 hours after the final antigen treatment, airway hypersensitivity was measured. 48 hours later, a lethal dose of pentobarbital (Entobar, Hanlim Pharm. Co. Ltd., Seoul, Korea) was administered to the mouse. Body weight was measured and tracheostomy was performed. Bronchoalveolar lavage was performed with 1.2 ml of saline, followed by sampling. The normal control group (NC) was administered with ovalbumin but not inhaled, the asthma induced group (OVA) was administered with ovalbumin and inhaled to induce bronchial asthma, the comparative group 1 (DEXA) was orally administered with dexamethasone (3 mg/kg, PO: D4902, Sigma, St. Louis, Mo.) one hour before inhaling ovalbumin, the comparative group 2 (Monte) was orally administered with montelukast (30 mg/kg, PO) one hour before inhaling ovalbumin, and the experimental group (Wogonin) was orally administered with the Wogonin of Example 1 (30 mg/kg, PO) one hour before inhaling ovalbumin. Each group was composed of 5 white mice.

[3] = system: infiltration of inflammatory cells around bronchiolus and blood vessels; test: Histopathological test of the lung (H&E, inflammatory index); type: in vivo, Balb/c mice; details: index scale 0-4; for Inflammatory Index around bronchiolus: OVA group 3.60 ± 0.22; for Inflammatory Index around blood vessels: OVA group 3.80 ± 0.18
Experimental: as §1, §2, §3
The infiltration of inflammatory cells including eosinophils, neutrophils, and macrophages is observed in the bronchus sensitized with an antigen. To investigate the effect of the Wogonin of the present invention on asthma, the inventors performed histopathological test with the lung without bronchoalveolar lavage.
The lung extracted without bronchoalveolar lavage from each group was fixed with formalin and embedded in paraffin. Then, 4 μm thick permanent tissue sections were prepared, followed by H&E staining. Upon completion of H&E staining, inflammatory index was measured from 5 random regions of each section, and then mean value was calculated.

[4] = system: airway hypersensitivity in ovalbumin-sensitized Balb/c mice; test: Measurement of airway hypersensitivity (Penh, methacholine inhalation, one chamber plethysmography); type: in vivo; details: for Penh value: mean±S.E.
Experimental: as §1, §2, §3
The effect of the Wogonin of the present invention on asthma related airway hypersensitivity was evaluated by measuring enhanced pause (Penh) which presents the grade of airway obstruction calculated by measuring airway resistance using one chamber plethysmorgraphy (All Medicus, Seoul). For the measurement of Penh, base value was measured under normal breathing condition and then PBS was inhaled by using an ultrasonic nebulizer for 3 minutes, followed by measuring for 3 minutes. Then, methacholine (A2251, Sigma, St. Louis, Mo.), the […], which is generally used to diagnose bronchial asthma, was inhaled to the animal with raising the concentration gradually (12, 25, and 50 mg/ml), followed by measuring Penh. The ratio of Penh increased over the concentrations of methacholine inhaled was presented as % and baseline Penh (saline challenge) was presented as 100%.

IL-6 = test: Analysis of cytokine mRNA (RT-PCR), IL-6; type: in vivo, Balb/c mice; details: for Relative Densitometric Value, RDV, IL-6: NC = 100%, OVA group 128.20 ± 6.51
Experimental: as §1, §2, §3
(§4) To investigate the effect of the Wogonin of the present invention on asthma, asthma related cytokine mRNA was measured.
(§5) RNA was isolated from the lung by using trizol (Invitrogen) in order to measure the expressions of Th2 cytokines such as IL-4, IL-6, and IL-13 in the supernatant of bronchoalveolar lavage fluid taken from each group, followed by reverse transcriptase polymerase chain reaction (quantitative RT-PCR, Promega, Wis.). When the lowest expression was indicated as 1, relative densitometric value (RDV) was produced by that to evaluate the expression inhibition effect.

reactive oxygen species = test: Measurement of reactive oxygen species generation (DCFH-DA fluorescence) in bronchoalveolar lavage fluid; type: in vivo, Balb/c mice; details: for Reactive oxygen species generation, DCF fluorescence: NC = 100%, OVA group 192.89 ± 27.36; for reduction of reactive oxygen species generation compared with the asthma induced group: vs asthma induced group
Experimental: as §1, §2, §3
The increase of oxidative stress results in the decrease of reaction to steroids. To investigate the effect of the Wogonin of the present invention on asthma, the present inventors measured the generation of reactive oxygen species which is apparent in asthma like in other inflammatory diseases.
A portion of bronchoalveolar lavage fluid of each group was washed with PBS, to which 10 μM of 2,7-Dichlorofluorescein diacetate (DCFH-DA, 35845, Sigma, St. Louis, Mo.), one of the fluorescent reagents, was added. The mixture stood at room temperature for 10 minutes in the darkness, and then measured fluorescence with a spectrofluorometer (Ex=480 nm Em=522 nm).

IL-13 = test: Analysis of cytokine mRNA (RT-PCR), IL-13; type: in vivo, Balb/c mice; details: for Relative Densitometric Value, RDV, IL-13: NC = 100%, OVA group 187.35 ± 7.49
Experimental: as §1, §2, §3, §4, §5

IL-4 = test: Analysis of cytokine mRNA (RT-PCR), IL-4; type: in vivo, Balb/c mice; details: for Relative Densitometric Value, RDV, IL-4: NC = 100%, OVA group 159.91 ± 14.87
Experimental: as §1, §2, §3, §4, §5

[5] = system: inflammatory cells (eosinophils and other inflammatory cells) in bronchoalveolar lavage fluid; test: Analysis of inflammatory cells in bronchoalveolar lavage fluid; type: in vivo, Balb/c mice; details: for Cell Number, other cells: OVA group 452.55 ± 93.48
Experimental: as §1, §2, §3
To investigate the effect of the Wogonin of the present invention on asthma, the present inventors measured the increase or decrease of inflammatory cell number which is believed to be involved in asthma.
As soon as bronchoalveolar lavage fluid was recovered from each group, it was stained with Trypan blue. Then, the number of cells, except dead cells, was counted by hemocytometer. The sample was smeared with Cytospin II, followed by Diff-Quick staining (Sysmex, Switzerland) to calculate the numbers of eosinophils and other inflammatory cells.

IgE = test: Measurement of IgE in serum and bronchoalveolar lavage fluid by enzyme immunoassay; type: in vivo, Balb/c mice; details: mean±S.E.; for Total IgE Conc. in bronchoalveolar lavage fluid: OVA group 19.02 ± 2.43; for Total IgE Conc. in Serum: OVA group 23139.51 ± 484.45
Experimental: as §1, §2, §3
To investigate the effect of the Wogonin of the present invention on asthma, the inventors measured IgE concentration in serum and bronchoalveolar lavage fluid which is related to the severity of asthma by enzyme immunoassay.
Serum and bronchoalveolar lavage fluid taken from each group were loaded in […] plate on which 0.1M NaHCO3 buffer (pH 8.3) containing 20 μg/ml of ovalbumin (OVA) was coated at 4° C. for overnight. Non-specific reaction was blocked by PBS containing 1% bovine serum albumin. Serum sample was diluted at the ratio of 1:400, followed by reaction at room temperature for 2 hours.
After washing the plate well, the sample was reacted with anti-mouse IgE monoclonal antibody diluted at the ratio of 1:300 for 2 hours. HRP-conjugated goat anti-rat IgG polyclonal A was diluted at the ratio of 1:4000, which was added thereto for further reaction at room temperature for 1 hour, followed by washing.
For color development, 3.3′5.5′-tetramethylbenzidine substrate was added, followed by measuring OD650.

[6] = methacholine 0 mg/ml, OVA group 0.6299 ± 0.0617
[7] = methacholine 25 mg/ml, OVA group 6.8642 ± 0.8313
[8] = methacholine 50 mg/ml, OVA group 9.1854 ± 1.6230

Structure (SMILES) | Penh value [1] | average body weight [2] | Inflammatory Index around bronchiolus [3] | Inflammatory Index around blood vessels [3] | Penh value [4, 6] | Penh value [4, 7] | Penh value [4, 8] | Relative Densitometric Value, RDV, IL-6 (IL-6) | Reactive oxygen species generation, DCF fluorescence (reactive oxygen species) | reduction of reactive oxygen species generation compared with the asthma induced group (reactive oxygen species) | Relative Densitometric Value, RDV, IL-13 (IL-13) | Relative Densitometric Value, RDV, IL-4 (IL-4) | Cell Number, eosinophils ([5]; OVA group 71.75 ± 4.63) | Cell Number, other cells [5] | Cell Number, total cells ([5]; OVA group 524.30 ± 43.22) | Total IgE Conc. in bronchoalveolar lavage fluid (IgE) | Total IgE Conc. in Serum (IgE) | also measured
C[C@@H]1C[C@H]2[C@@H]3CCC4=CC(=O)C=C[C@]4(C)[C@@]3(F)[C@@H](O)C[C@]2(C)[C@@]1(O)C(=O)CO [DEXA, dexamethasone] | 1.6750 ± 0.0820 | 21.04 ± 0.35 g | 1.75±0.19 | 1.50 ± 0.22 | 0.6486 ± 0.1526 | 1.9963 ± 0.1577 | 2.7864 ± 0.4293 | 121.37 ± 6.78% | 116.55 ± 9.28% | 39.58% | 176.55 ± 16.13% | 139.60 ± 13.34% | 8.24 ± 1.31 ×10^3 cell/mouse | 81.00 ± 10.40 ×10^3 cell/mouse | 89.24 ± 6.98 ×10^3 cell/mouse | 10.15 ± 1.38 ng/mL | 15991.36 ± 1194.92 ng/mL | Inflammatory Index around blood vessels ([3]; listed as comparative control group 1): 1.50±0.22; Cell Number, eosinophils ([5]; OVA group 71.75 ± 4.63, listed as dexamethasone): 8.24±1.31 ×10^3 cell/mouse; Cell Number, total cells ([5]; OVA group 524.30 ± 43.22, listed as dexamethasone): 89.24±6.98 ×10^3 cell/mouse
CC(C)(O)c1ccccc1CC[C@@H](SCC1(CC(=O)O)CC1)c1cccc(/C=C/c2ccc3ccc(Cl)cc3n2)c1 [Monte, montelukast] | 1.5249 ± 0.2432 | 21.08 ± 0.36 g | 2.25±0.22 | 2.50 ± 0.25 | 0.4525 ± 0.0313 | 2.1006 ± 0.4758 | 2.3576 ± 0.1741 | 112.39 ± 7.16% | 104.48 ± 9.80% | 45.84% | 157.67 ± 16.60% | 138.86 ± 19.52% | 27.88 ± 2.80 ×10^3 cell/mouse | 130.12 ± 9.22 ×10^3 cell/mouse | 167.68 ± 8.80 ×10^3 cell/mouse | 10.15 ± 1.58 ng/mL | 17176.54 ± 2542.98 ng/mL | Inflammatory Index around blood vessels ([3]; listed as comparative control group 2): 0.50±0.25; Cell Number, eosinophils ([5]; OVA group 71.75 ± 4.63, listed as montelukast): 27.88±2.80 ×10^3 cell/mouse; Cell Number, total cells ([5]; OVA group 524.30 ± 43.22, listed as montelukast): 167.68±8.80 ×10^3 cell/mouse
COc1c(O)cc(O)c2c(=O)cc(-c3ccccc3)oc12 [Wogonin] | 1.7059 ± 0.3028 | 21.92 ± 0.43 g | 1.00±0.28 | 1.40±0.22 | 0.4261 ± 0.0069 | 2.0166 ± 0.2248 | 2.6055 ± 0.2280 | 106.87 ± 10.47% | 60.91 ± 4.14% | 68.42% | 143.68 ± 14.08% | 118.11 ± 29.80% | 32.24±8.84 ×10^3 cell/mouse | 140.28 ± 26.24 ×10^3 cell/mouse | 172.52±29.29 ×10^3 cell/mouse | 12.10 ± 1.87 ng/mL | 19418.52 ± 1332.101 ng/mL | Penh value over the increase of methacholine concentration ([4]; range over methacholine concentrations): 1.7059-2.6055; suppression of IL-6 expression compared with the asthma induced group (IL-6; lung, vs asthma induced group): 16.64%; suppression of IL-13 expression compared with the asthma induced group (IL-13; lung, vs asthma induced group): 23.30%; suppression of IL-4 expression compared with the asthma induced group (IL-4; lung, vs asthma induced group): 26.14%
